Measured values as given in PubChem BioAssay (NCI).
“And” between values parts separate entries of the source, which are not always exact repeats. Identical values can stand only once.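 These data come from cells grown in 96-well plates and exposed to compound for 48 hours at five concentrations. GI50: concentration for 50% inhibition of growth. TGI is the concentration that stops growth completely.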

What was measured:
Assay in all cases: growth of human tumour cells (NCI), 48 h
SW-620 colon = tested on: SW-620 colon
HS 578T breast = tested on: HS 578T breast
LOX IMVI melanoma = tested on: LOX IMVI melanoma
EKVX NSCLC = tested on: EKVX NSCLC
SNB-75 CNS = tested on: SNB-75 CNS
ACHN renal = tested on: ACHN renal
K-562 leukemia = tested on: K-562 leukemia
OVCAR-5 ovarian = tested on: OVCAR-5 ovarian

SMILES	GI50 (SW-620 colon)	TGI (SW-620 colon) [µM]	GI50 (HS 578T breast)	TGI (HS 578T breast)	GI50 (LOX IMVI melanoma)	TGI (LOX IMVI melanoma)	GI50 (EKVX NSCLC) [µM]	TGI (EKVX NSCLC) [µM]	GI50 (SNB-75 CNS)	TGI (SNB-75 CNS)	GI50 (ACHN renal)	TGI (ACHN renal) [µM]	GI50 (K-562 leukemia)	TGI (K-562 leukemia) [µM]	GI50 (OVCAR-5 ovarian)	TGI (OVCAR-5 ovarian) [µM]
CC(=O)Nc1ccc2c(c1)CN1C(=O)c3ccccc3C1=N2	> 100 µM	> 100	> 100 µM	> 100 µM	> 100 µM	> 100 µM	> 100	> 100	> 100 µM	> 100 µM	> 100 µM	> 100	> 100 µM	> 100	> 100 µM	> 100
Oc1cccc(-c2nc(N3CCOCC3)c3oc4ncccc4c3n2)c1	0.344 µM and 0.353 µM	> 100	0.0576 µM and 0.0526 µM	2.94 µM and 0.409 µM	0.158 µM and 0.151 µM	2.33 µM and 3.02 µM	0.213	0.82	0.0401 µM and < 0.0151 µM	0.311 µM and 0.114 µM	0.0878 µM and 0.164 µM		1.35 µM and 2.18 µM	> 100	2.38 µM and 2.84 µM	> 26.6
N=C(N)SCC(=O)O		> 100		> 100 µM		> 100 µM		> 100		> 100 µM		> 100		> 100		> 100
O=C(Nc1nc2ccc(F)cc2s1)c1cccnc1Nc1ccc(Cl)cc1Cl	3.04 µM	15.1	2.92 µM	19.7 µM	3.62 µM	14.6 µM	2.02	16	1.96 µM	9.14 µM	3.35 µM	13.7	1.93 µM	9.26	7.71 µM	28.9
COc1ccc2c(c1)c(-c1cc(-c3cn(C)c4ccc(OC)cc34)[nH]n1)cn2C	> 100 µM	> 100	> 100 µM	> 100 µM	> 100 µM	> 100 µM	> 100	> 100	> 100 µM	> 100 µM	> 100 µM	> 100	> 100 µM	> 100	> 100 µM	> 100
CC(=O)OC1Oc2cc(C)c(C)cc2-c2oc(=O)c(-c3ccccc3)cc21 (centres undefined)	0.242 µM	> 100	0.244 µM	1.42 µM	1.47 µM	> 100 µM	0.685	> 100	0.21 µM	0.902 µM	1.34 µM	> 100	0.178 µM	> 100	5.18 µM	> 100
C#CCn1cc(C=C2C(=O)NC(=S)NC2=O)c2cc(Cl)ccc21	1.79 µM	3.45	2.34 µM	7.6 µM	1.65 µM	3.11 µM	2.14	5.92	1.37 µM	3.67 µM	1.97 µM	4.07	2.85 µM	> 100	1.96 µM	4.12
O=c1c2ccccc2c(=O)c2c1sc1c(=O)c3ccc(O)cc3c(=O)c12	0.436 µM	1.56	0.33 µM	0.973 µM			1.34	3.66	0.183 µM	0.4 µM	0.864 µM	2.38	0.715 µM	> 100	1.74 µM	3.65
N#CC1=C(N)NC(=S)C(C#N)C12Nc1ccccc1S2 (centres undefined)	19.1 µM	42.3			13.5 µM	32.6 µM	0.793	8.04	28.1 µM	73 µM	9.82 µM	29.4	48.2 µM	> 100		
Cc1ccc(-c2cc(C(Cl)Cl)on2)cc1	67.5 µM	> 100	> 100 µM	> 100 µM	41.1 µM	> 100 µM	46.1	> 100			33.5 µM	> 100			> 100 µM	> 100
COc1ccccc1-c1nccc(COc2ccccc2C[C@@H](Oc2ncnc3sc(-c4ccc(F)cc4)c(-c4ccc(OCCN5CCN(C)CC5)c(Cl)c4C)c23)C(=O)O)n1	2.34 µM	6.88	0.515 µM	3.29 µM			1.32	5.03	0.0348 µM	1.29 µM	5.07 µM	15.3	3.01 µM	> 33.6	2.12 µM	6.25
C/C(=N\O)[C@H]1CC[C@@]2(C)[C@@H]3CC[C@H]4C(C)(C)/C(=N/O)CC[C@@]45CC35CC[C@]12C (some centres undefined)	8.68 µM	> 16.7	2.23 µM	7.54 µM	0.759 µM	4.1 µM	5.66	> 16.7	7.46 µM	14.8 µM	2.51 µM	4.97	3.42 µM	> 16.7		
CCOc1cccc(/C=N/NC(=O)Cc2ccc(Nc3ccnc(C(F)(F)F)c3)cc2)c1O	3.06 µM	18	5.75 µM	> 100 µM	1.49 µM	> 100 µM	3.87	> 100	12.4 µM	55 µM	1.53 µM	> 100	2.25 µM	15	32.6 µM	> 100
Nn1nnc2ccccc21		> 100				> 100 µM		> 100		> 100 µM		> 100		> 100		> 100
COc1ccc(CNC(=O)c2ccc(-c3cc(-c4nnc(C)o4)ccc3C)cc2)cc1	> 25 µM	> 25	> 25 µM	> 25 µM	> 25 µM	> 25 µM	7.68	> 25	14.2 µM	> 25 µM	16.3 µM	> 25	11.2 µM	> 25	> 25 µM	> 25
O=C1Nc2ccc(Br)cc2C1=Nc1ccc(Cl)cc1		32.5		> 100 µM		31.8 µM		47.1				39.1		73.3		39.8
COc1cccc(C2CC(=O)Nc3cc4c(cc32)CCC4)c1OC (centres undefined)	3.11 µM	> 46.2	3.04 µM	34.8 µM	4.26 µM	16.8 µM			2.31 µM	11.9 µM	6.72 µM	> 84	3.07 µM	37.5	7.67 µM	> 80.3
